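Grown in 96-well plates, cells were treated for 48 hours with each compound at five concentrations. Insufficient inhibition: endpoint recorded as highest concentration tested. Abbreviation: GI50, concentration required for 50% inhibition of growth. At the TGI there is no net growth.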

The results in this text go back to PubChem BioAssay (NCI).

Test systems include UACC-62 melanoma; MDA-MB-231 breast; SF-295 CNS; HOP-62 NSCLC; HT29 colon; NCI-H226 lung; KM12 colon; SNB-19 CNS; EKVX NSCLC; CCRF-CEM leukemia.
Common to all, as to experiment: growth of human tumour cells (NCI), 48 h

Turning to `CCC1(CC)C(=O)N(C(=O)c2ccc(Cl)cc2)N(C(=O)c2ccccc2Cl)C1=O`, the TGI is above 100 µM in the experiment on UACC-62 melanoma; above 100 µM in the experiment with MDA-MB-231 breast; above 100 µM in the experiment on SF-295 CNS; above 100 µM in the experiment on HOP-62 NSCLC; 22.6 µM in the experiment with HT29 colon; 31.5 µM with NCI-H226 lung. Also, the TGI with KM12 colon was above 100 µM; in the experiment with SNB-19 CNS, above 100 µM; in the experiment on EKVX NSCLC, 24.9 µM; in the experiment with CCRF-CEM leukemia, above 100 µM.
`CC1(C)CC(=O)C2=C(C1)OC1=C(CC(C)(C)CC1=O)C2c1ccccc1Cl` (configuration not stated): the TGI with UACC-62 melanoma, in the experiment with MDA-MB-231 breast, with SF-295 CNS, in the experiment with HOP-62 NSCLC, in the experiment on HT29 colon and in the experiment on NCI-H226 lung was above 100 µM throughout. Besides, the TGI in the experiment with SNB-19 CNS, with EKVX NSCLC and with CCRF-CEM leukemia was above 100 µM in each case.
For the compound `COc1ccc2[nH]c3c(C)c4ccnc(NCCCN(C)CCCNC(=O)NCCCN(C)CCCNc5nccc6c(C)c7[nH]c8ccc(OC)cc8c7c(C)c56)c4c(C)c3c2c1`, the TGI in the experiment with UACC-62 melanoma was above 11.6 µM; in the experiment with MDA-MB-231 breast, above 50 µM; with HOP-62 NSCLC, 2.11 µM; with HT29 colon, 1.19 µM; in the experiment with KM12 colon, above 10.1 µM; in the experiment with SNB-19 CNS, 2.13 µM. The TGI is 2.56 µM with EKVX NSCLC and 6.01 µM with CCRF-CEM leukemia.
Consider `COc1cccc2c(NNc3ccc(Cl)cc3)c3ccc([N+](=O)[O-])cc3nc12`, for which the TGI in the experiment on UACC-62 melanoma worked out at 26.3 µM; in the experiment on MDA-MB-231 breast it was 27.5 µM; in the experiment with SF-295 CNS, 36.1 µM; in the experiment on HOP-62 NSCLC, 24.2 µM; in the experiment with HT29 colon it was 34.8 µM; in the experiment with NCI-H226 lung, 36.8 µM. The TGI is above 100 µM in the experiment with KM12 colon, 33.2 µM in the experiment on SNB-19 CNS, 33.3 µM in the experiment on EKVX NSCLC and 15.6 µM with CCRF-CEM leukemia.
For `Cc1ccc(-c2cn3c(nc4ccccc43)c(C)n2)cc1`, the TGI in the experiment on UACC-62 melanoma is above 81.3 µM; with MDA-MB-231 breast, above 100 µM; in the experiment with SF-295 CNS, above 100 µM; in the experiment with HOP-62 NSCLC, above 100 µM; with HT29 colon, above 100 µM; with NCI-H226 lung, above 100 µM. For the same compound, the TGI in the experiment with KM12 colon, with SNB-19 CNS, with EKVX NSCLC and in the experiment on CCRF-CEM leukemia was above 100 µM each time.
As for `CSc1nc(Cl)c2c(n1)Sc1ncnn1C2O` (configuration not stated), the TGI came to 26.3 µM with UACC-62 melanoma; 31.6 µM in the experiment with MDA-MB-231 breast; 41.1 µM in the experiment on HOP-62 NSCLC; 28.4 µM in the experiment with HT29 colon; 45.2 µM with SNB-19 CNS; 36.3 µM with EKVX NSCLC. In the experiment with CCRF-CEM leukemia, the TGI is 10.9 µM.
On to `Cc1c2cccc-2c(N(C)C)cc2c1[nH]c1ccccc12`, for which the TGI with MDA-MB-231 breast amounted to 23.8 µM; in the experiment with SF-295 CNS it was 25.3 µM; in the experiment on HOP-62 NSCLC it was 15.1 µM; with HT29 colon, 18.2 µM; with NCI-H226 lung, 21.8 µM; in the experiment with KM12 colon, 7.98 µM. The TGI in the experiment with SNB-19 CNS stood at 22.1 µM; in the experiment with EKVX NSCLC it was 5.05 µM; with CCRF-CEM leukemia, 12.8 µM.
Take `OB1OCc2ccccc21`: the TGI with UACC-62 melanoma was above 100 µM; in the experiment on MDA-MB-231 breast, above 100 µM; in the experiment on SF-295 CNS, 40.9 µM; in the experiment with HOP-62 NSCLC it was 62.9 µM; with HT29 colon, above 100 µM; in the experiment on NCI-H226 lung, above 100 µM. Also, the TGI in the experiment with KM12 colon is above 100 µM; with SNB-19 CNS it was above 100 µM; in the experiment on CCRF-CEM leukemia, 54.9 µM.
As for `CC1=C2CC3=C(C)C(=O)O[C@H]3C[C@@H](C)[C@@H]2CC1`, the TGI with UACC-62 melanoma, in the experiment on MDA-MB-231 breast, with SF-295 CNS, with HT29 colon, in the experiment on NCI-H226 lung and in the experiment on KM12 colon was above 100 µM in each case. Further, the TGI in the experiment with SNB-19 CNS, in the experiment with EKVX NSCLC and in the experiment on CCRF-CEM leukemia was above 100 µM each time.
On to `C[Si](C)(C)C1=C2C(=O)c3ccccc3C(=O)C2=C([Si](C)(C)C)[C@@H]2CCCC[C@H]12`, for which the TGI in the experiment with UACC-62 melanoma, in the experiment with MDA-MB-231 breast, in the experiment with SF-295 CNS, in the experiment on SNB-19 CNS, with EKVX NSCLC and in the experiment on CCRF-CEM leukemia was above 100 µM throughout.
On to `c1ccc(C2(c3cc4ccccc4[nH]3)OCCO2)cc1`, for which the TGI in the experiment on UACC-62 melanoma, in the experiment on MDA-MB-231 breast, with SF-295 CNS, in the experiment on HT29 colon, in the experiment with NCI-H226 lung and with KM12 colon was above 100 µM each time. The TGI with SNB-19 CNS is above 100 µM; in the experiment on EKVX NSCLC, above 100 µM; in the experiment on CCRF-CEM leukemia it was 74 µM.
Take `CN(C)CCCn1c2c(c3ccncc3c1=O)C(=O)c1ccccc1-2`: the GI50 with UACC-62 melanoma was 1.22 µM; in the experiment on MDA-MB-231 breast it was 1.77 µM; in the experiment on SF-295 CNS, 1.06 µM; with HOP-62 NSCLC it was 0.862 µM; in the experiment with HT29 colon, 0.484 µM; in the experiment on NCI-H226 lung, 0.466 µM. Moreover, the GI50 is 0.641 µM in the experiment with KM12 colon, 7.91 µM in the experiment with EKVX NSCLC and 0.77 µM in the experiment on CCRF-CEM leukemia. Besides, the TGI with UACC-62 melanoma was found to be 3.74 µM; in the experiment with MDA-MB-231 breast, 7.7 µM; with SF-295 CNS, 10.3 µM; in the experiment on HOP-62 NSCLC, 20.6 µM; in the experiment with HT29 colon, 13.1 µM; in the experiment with NCI-H226 lung, 2.47 µM. Besides, the figures for the TGI in the experiment with KM12 colon, in the experiment on EKVX NSCLC and in the experiment with CCRF-CEM leukemia were 11.5 µM, 48.3 µM and 13 µM, respectively.
Take `O=S(=O)(CC#CCS(=O)(=O)c1ccccc1)c1ccccc1`: the TGI in the experiment with UACC-62 melanoma stood at 11.5 µM; in the experiment on MDA-MB-231 breast, 26.5 µM; with SF-295 CNS, 43.6 µM; in the experiment with HOP-62 NSCLC, 20.7 µM; with HT29 colon it was 27.7 µM; in the experiment with NCI-H226 lung, 34.7 µM. Further, the TGI in the experiment on KM12 colon stood at 28.1 µM; with SNB-19 CNS, 32.9 µM; with EKVX NSCLC, 12.1 µM.
For the compound `C=CC(C)(C)c1cc([C@@H]2COc3cc(O)ccc3C2=O)c(O)c(OC)c1OC`, the TGI in the experiment on UACC-62 melanoma stood at 27.5 µM; with MDA-MB-231 breast it was 37.9 µM; in the experiment on SF-295 CNS, 27.5 µM; in the experiment with HT29 colon, 47.3 µM; with NCI-H226 lung, 38.9 µM; with KM12 colon it was 27.8 µM. In addition, the TGI in the experiment with SNB-19 CNS was 30.6 µM; with EKVX NSCLC, 58.3 µM; with CCRF-CEM leukemia, above 100 µM.
